Reference: the supplement of paper PMC10307832

Legend:
Experiment in all cases: relative viability (nuclei count vs DMSO), 5 days (fraction); higher = more cells survive
Bleomycin + Pemetrexed = compound: CC1=C(N=C(N=C1N)[C@H](CC(=O)N)NC[C@@H](C(=O)N)N)C(=O)N[C@@H]([C@H](C2=CN=CN2)OC3C(C(C(C(O3)CO)O)O)OC4C(C(C(C(O4)CO)O)OC(=O)N)O)C(=O)N[C@H](C)[C@H]([C@H](C)C(=O)N[C@@H]([C@@H](C)O)C(=O)NCCC5=NC(=CS5)C6=NC(=CS6)C(=O)NCCC[S+](C)C)O [Bleomycin] + Nc1nc2[nH]cc(CCc3ccc(C(=O)N[C@@H](CCC(=O)O)C(=O)O)cc3)c2c(=O)[nH]1 [Pemetrexed] (partner 0.2 µM); conditions: main component drawn
Procedure, shortened: (§1)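 Cells from lung cancer lines were seeded into 1536-well plates and, one day later, dosed by pin tool. Treatments were either a single drug or a fixed dose of an anchor drug with five library-drug doses (not always all listed) in √10 steps. After 5 days, nuclei were stained in a one-step fixation (final 0.05% Triton X-100, 1% formaldehyde, 1 ug/ml Hoechst) and counted on 4× images, and relative viability is the treated-to-vehicle nuclei ratio, as the median of duplicate plates.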

Etoposide + Trametinib = compound: COc1cc([C@@H]2c3cc4c(cc3[C@@H](O[C@@H]3O[C@@H]5CO[C@@H](C)O[C@H]5[C@H](O)[C@H]3O)[C@H]3COC(=O)[C@H]23)OCO4)cc(OC)c1O [Etoposide] + CC(=O)Nc1cccc(-n2c(=O)n(C3CC3)c(=O)c3c(Nc4ccc(I)cc4F)n(C)c(=O)c(C)c32)c1 [Trametinib] (partner 0.02 µM)
Procedure, shortened: as §1

Etoposide + Foretinib = compound: COc1cc([C@@H]2c3cc4c(cc3[C@@H](O[C@@H]3O[C@@H]5CO[C@@H](C)O[C@H]5[C@H](O)[C@H]3O)[C@H]3COC(=O)[C@H]23)OCO4)cc(OC)c1O [Etoposide] + COc1cc2c(Oc3ccc(NC(=O)C4(C(=O)Nc5ccc(F)cc5)CC4)cc3F)ccnc2cc1OCCCN1CCOCC1 [Foretinib] (partner 0.25 µM)
Procedure, shortened: as §1

Etoposide + Pemetrexed = compound: COc1cc([C@@H]2c3cc4c(cc3[C@@H](O[C@@H]3O[C@@H]5CO[C@@H](C)O[C@H]5[C@H](O)[C@H]3O)[C@H]3COC(=O)[C@H]23)OCO4)cc(OC)c1O [Etoposide] + Nc1nc2[nH]cc(CCc3ccc(C(=O)N[C@@H](CCC(=O)O)C(=O)O)cc3)c2c(=O)[nH]1 [Pemetrexed] (partner 0.2 µM)
Procedure, shortened: as §1

| Cell Line | relative viability (Bleomycin + Pemetrexed; first compound 0.01 µM) | relative viability (Bleomycin + Pemetrexed; first compound 0.03162 µM) | relative viability (Bleomycin + Pemetrexed; first compound 0.1 µM) | relative viability (Bleomycin + Pemetrexed; first compound 0.3162 µM) | relative viability (Bleomycin + Pemetrexed; first compound 1 µM) | relative viability (Etoposide + Trametinib; first compound 0.01 µM) | relative viability (Etoposide + Trametinib; first compound 0.03162 µM) | relative viability (Etoposide + Trametinib; first compound 0.1 µM) | relative viability (Etoposide + Trametinib; first compound 0.3162 µM) | relative viability (Etoposide + Trametinib; first compound 1 µM) | relative viability (Etoposide + Foretinib; first compound 0.01 µM) | relative viability (Etoposide + Foretinib; first compound 0.03162 µM) | relative viability (Etoposide + Foretinib; first compound 0.1 µM) | relative viability (Etoposide + Foretinib; first compound 0.3162 µM) | relative viability (Etoposide + Foretinib; first compound 1 µM) | relative viability (Etoposide + Pemetrexed; first compound 0.01 µM) | relative viability (Etoposide + Pemetrexed; first compound 0.03162 µM) | relative viability (Etoposide + Pemetrexed; first compound 0.1 µM) | relative viability (Etoposide + Pemetrexed; first compound 0.3162 µM) | relative viability (Etoposide + Pemetrexed; first compound 1 µM) |
| --- | --- | --- | --- | --- | --- | --- | --- | --- | --- | --- | --- | --- | --- | --- | --- | --- | --- | --- | --- | --- |
| HARA | 0.219 | 0.228 | 0.237 | 0.169 | 0.217 | 0.628 | 0.638 | 1.01 | 0.592 | 0.353 | 0.703 | 0.9 | 0.291 | 0.534 | 0.187 | 0.235 | 0.309 | 0.25 | 0.261 | 0.232 |
| NCI-H2126 | 0.728 | 0.774 | 0.629 | 0.567 | 0.611 | 0.539 | 0.683 | 0.427 | 0.455 | 0.312 | 1.05 | 1.08 |  | 0.712 | 0.394 | 0.633 | 0.878 | 0.591 | 0.677 | 0.461 |
| NCI-H1437 | 0.347 | 0.303 | 0.312 | 0.288 | 0.316 | 0.417 | 0.551 | 0.361 | 0.412 | 0.298 | 1.21 | 1.2 | 1.27 | 0.943 | 0.44 | 0.309 | 0.318 | 0.303 | 0.325 | 0.303 |
| NCI-H2342 | 0.837 | 0.759 | 0.685 | 0.539 | 0.62 | 0.777 | 0.881 | 0.505 | 0.355 | 0.344 | 0.878 | 1.02 | 0.493 | 0.359 | 0.298 | 0.861 | 0.866 | 0.472 | 0.421 | 0.291 |
| ChaGo-K-1 | 0.267 | 0.251 | 0.245 | 0.261 | 0.24 | 0.881 | 0.905 | 0.752 | 0.394 | 0.248 | 0.781 | 0.978 | 0.8 | 0.281 | 0.21 | 0.267 | 0.261 | 0.259 | 0.261 | 0.218 |
| NCI-H661 | 0.886 | 0.821 | 0.688 | 0.412 | 0.366 | 0.567 | 0.639 | 0.398 | 0.51 | 0.388 | 0.982 | 1.06 | 0.889 | 0.845 | 0.53 | 0.863 | 0.984 | 0.849 | 0.858 | 0.625 |
| COR-L23 | 0.191 | 0.203 | 0.193 | 0.153 | 0.146 | 0.578 | 0.666 | 0.348 | 0.488 | 0.233 | 0.954 | 1.14 | 1 | 0.744 | 0.33 | 0.198 | 0.207 | 0.207 | 0.214 | 0.189 |
